# Reference: patent US7232805B2, “Cobalamin conjugates for anti-tumor therapy” (Inflabloc Pharmaceuticals, Inc., priority 2003, dated 2007)
# Columns and labels:
# SK-BR-3 cells = assay: CellTiter-Glo Luminescent Cell Viability Assay, SK-BR-3 cells; assay type: cell-based, human; conditions: SK-BR-3, 96 hours, 100 μM down to 10 nM, FIG. 6b
# Text: FIGS. 6a-6d depict the results of in vitro assays of the conjugate against four cell lines. FIG. 6A is a chart depicting the results of the conjugate against MCF-7 cells, cells derived from a human breast cancer cell line. FIG. 6B is a chart depicting the results of the conjugate against SK-BR-3 cells, cells derived from a human breast adenocarcinoma cell line. FIG. 6C is a chart depicting the results of the conjugate against HL-60 cells, cells derived from a human promyelocytic leukemia cell line. FIG. 6D is a chart depicting the results of the conjugate against SK-N-MC cells, cells derived from a human brain neuroblastoma (neuroepithelioma) cell line. […]
# (§1) After 96 hours, the effects of doxorubicin and B12-S-doxorubicin on cell viability were determined using an assay from Promega. The CellTiter-Glo™ Luminescent Cell Viability Assay quantitates the ATP present in a culture, which correlates with metabolically active cells. Luminescence, which is dependent on ATP concentration, was measured for each individual well on a Wallac MicroBeta® JET Liquid Scintillation and Luminescence Counter. The average luminescence value of the three wells containing medium alone was subtracted from the raw data values to give corrected values. […] The three corrected values for wells dosed with the same concentration of compound were averaged and the standard deviation calculated. […]
# SK-N-MC cells = assay: CellTiter-Glo Luminescent Cell Viability Assay, SK-N-MC cells; assay type: cell-based, human; conditions: 96 hours, 100 μM down to 10 nM
# Text: FIG. 8 is a chart depicting the results of an in vitro assay of the stable conjugate against SK-N-MC cells, cells derived from a human brain neuroblastoma (neuroepithelioma) cell line. The assay employed is the CellTiter-Glo™ Luminescent Cell Viability Assay from Promega Corporation, which is recognized in the art as being predictive of the effect of a compound on cell viability. FIG. 8 depicts the results of the assay conducted according to Example 9. The method described by Promega Corporation (Technical Bulletin No. 288) was followed with no exceptions.
# Doxorubicin and CobalaRubicin-200 stocks and stock solutions, prepared in 5% DMSO in water, were stored at −20° C. and protected from light. […]
# as §1, with “Percent cell viability was calculated by considering” for “The three corrected values for wells dosed with”, “untreated cells as 100% viable.” for “same concentration of compound were averaged and the standard deviation calculated.”
# [1] = maximum tolerated dose of the conjugate in nude mice (Example 10); assay type: in vivo, Charles River nude (athymic) mice; conditions: 5 consecutive daily intravenous doses, FIG. 10
# Experimental: The following procedure was used to investigate the maximum tolerated dose of the vitamin B12-doxorubicin conjugate in Charles River nude (athymic) mice. Five groups of 5 mice each were weighed and then administered the first of 5 consecutive daily doses of intravenous conjugate; dose levels were 8, 16, 32, 48 and 54 mg/kg/day. Overall toxicity was assessed by weighing the mice twice weekly starting on Day 1 of dosing (the initial dose) and by frequent inspection for clinical signs and symptoms. The NCI definition of the MTD for cancer chemotherapy in mice was adopted for this study. The desirable MTD is that dose of drug mediating a maximum mean body weight loss of ≦10% and no toxic deaths. The upper limit of the MTD is that dose causing a mean 20% weight loss in the group, and one death per 10 animals. After dosing once a day for 5 consecutive days, animals were monitored for another 5 days to address recurrent and latent toxicities.
# [2] = test system: MX-1 human breast carcinoma xenograft; assay: tumor growth delay, MX-1 xenograft, two-cycle dosing (Example 11)
# Experimental: The following procedure was used to investigate the tumor growth delay effects of the conjugate, particularly for the treatment of MX-1 human breast carcinoma xenograft in athymic mice using a two-cycle dosing regimen. Female nude Harlan mice are implanted subcutaneously with 1 mm^3 MX 1 solid tumor fragments in the flank. During the pre-dose phase of implantation and growth, tumors are initially monitored twice weekly, and then daily as the neoplasms approach the desired size of 80-120 mg. When the majority of tumors reached the targeted weight range (80-120 mg), mice are pair-matched into 5 treatment groups of 10 mice each. For purposes of this illustrationon the effect of 2-cycles of treatment, data from 3 groups are shown: no treatment, 3 mg/kg/day (days 1-5, 21-25) intravenous Doxorubicin and 24 mg/kg/day (days 1-5, 21-25) intravenous bioconjugate. Test article administration began on this day, referred to as Day 1. The tumor growth delay endpoint is reached when the tumor on the mouse reaches 1.5 gm weight estimated by the formula: Tumor weight (mg)=w^2×l/2×1 mg/mm^3, where w=width (mm) and l=length (mm) of the tumor. The median time to endpoint is calculated for each treatment group.
# [3] = lower dose than 24 mg/kg/day, data not shown
# [4] = two cycles of 24 mg/kg/day intravenous
# [5] = two cycles of 24 mg/kg/day intravenous, at 71 days
smiles,measurement,setting,value
"COc1cccc2c1C(=O)c1c(O)c3c(c(O)c1C2=O)C[C@@](O)(C(=O)CO)C[C@@H]3O[C@H]1C[C@H](NC(=O)OCc2ccc(NC(=O)[C@H](CCCCN)NC(=O)[C@H](Cc3ccccc3)NC(=O)CCCCCNC(=O)OC[C@H]3O[C@H](n4cnc5cc(C)c(C)cc54)[C@H](O)[C@@H]3OP(=O)(O)O[C@H](C)CNC(=O)CC[C@@]3(C)C4=C(C)C5=NC(=CC6=NC(=C(C)C7=N[C@@](C)([C@H](N4)[C@@H]3CC(N)=O)[C@@](C)(CC(N)=O)[C@@H]7CCC(N)=O)[C@@](C)(CC(N)=O)[C@@H]6CCC(N)=O)C(C)(C)[C@@H]5CCC(N)=O)cc2)[C@H](O)[C@H](C)O1 [conjugate 13, B12-5′-OCONH(CH2)5CO-Phe-Lys-PABC-Dox]",cell viability versus free doxorubicin,SK-BR-3 cells,same effectiveness as doxorubicin and is slightly less potent than doxorubicin
same,cell viability / cytotoxicity,SK-N-MC cells; FIG. 6d and FIG. 8,very efficacious
same,cell viability / cytotoxicity,"SK-N-MC cells; FIG. 6d and FIG. 8, listed as CobalaRubicin 200",same effectiveness as doxorubicin and is slightly less potent than doxorubicin
same,"toxicity versus dose, as measured by percent mean body weight loss",[1],clear trend of increasing toxicity with increasing dose
same,MTD,"[1]; mouse, in vivo, percent mean body weight loss, read-out: dose at which the conjugate was well tolerated (MTD study)",≤ 48 mg/kg/day
same,efficacy versus free doxorubicin on a molar equivalent basis,[2]; [3],less efficacious than free doxorubicin
same,tumor growth versus non-treatment control,[2]; [3],delay in tumor growth was observed
same,time to endpoint longer than control mice,"[2]; two cycles of 24 mg/kg/day (days 1-5, 21-25) intravenous",44 days
same,maximum body weight loss,[2]; [4],10%
same,treatment or nontreatment related deaths,[2]; [4],no treatment or nontreatment related deaths
same,"long-term, tumor-free survivors",[2]; [5],7 of 10
same,mice that developed complete regression,[2]; [5],9 of 10
same,recovery from weight loss versus native doxorubicin,"[2]; two-cycle study, FIG. 12b, equivalent dose of doxorubicin in the conjugate 2-fold greater",tended recover from their weight loss sooner
same,weight loss,"[2]; two-cycle study, doxorubicin 3 mg/kg/day, bioconjugate 24 mg/kg/day",significant weight loss
same,reduction of tumor size and delay of tumor growth,"[2]; two-cycle treatment, study day 71, FIG. 11",extremely effective at reducing tumor size and delaying tumor growth
